Consider 1 substance from patent US6558900B2, “Regulation of apoptosis and in vitro model for studies thereof” (Emory University, priority 1996, dated 2003).

This assay deals with hamster liver nuclei. The assay can be described thus: Reconstitution of DNA fragmentation and nuclear morphological change in HeLa S-100 immunodepleted of cytochrome c. Format: biochemical. The protocol: Cytochrome c present in the HeLa cell S-100 was immunodepleted as described in the Example 10. In FIG. 7A, 10 μl aliquots of HeLa S-100 (50 μg) (lanes 1 and 2), or 10 μl aliquots of HeLa S-100 immunodepleted of cytochrome c (lanes 3 and 4), or 10 μl of HeLa S-100 immunodepleted of cytochrome c supplemented with 0.2 μg Apaf-2 purified through the Mono S column (H) (lanes 5 and 6), bovine heart cytochrome c (B) (lanes 7 and 8), or rat liver cytochrome c (R) (lanes 9 and 10), were incubated with aliquots of 3 μl in vitro translated, ^35S-labeled CPP32 in the absence (lanes 1, 3, 5, 7, 9) or presence (lanes 2, 4, 6, 8, 10) of 1 mM dATP at 30° C. for 1 hr in a final reaction volume of 20 μl of buffer A. Samples were subjected to SDS-PAGE and transferred to a nitrocellulose filter which were then exposed to film for 16 hr at room temperature. In FIG. 7B, HeLa S-100 (50 μg) immunodepleted of cytochrome c were reconstituted with the indicated amount of Apaf-2 (purified through Mono S column step) in a CPP32 cleavage reaction as described in FIG. 7A. The cleaved products (p20) were quantified in a Fuji-1000 phosphorimager machine and plotted in comparison with that generated by HeLa S-100. In FIG. 7C, aliquots of 50 μl of HeLa S-100 (250 μg) (lanes 1 and 2), or 50 μl of HeLa S-100 immunodepleted of cytochrome c (lanes 3 and 4), or 50 μl of HeLa S-100 immunodepleted of cytochrome c supplemented with 1 μg apaf-2 purified through the Mono S column (H) (lanes 5 and 6), bovine heart cytochrome c (B) (lanes 7 and 8), or rat liver cytochrome c (R) (lanes 9 and 10), were incubated with aliquots of 6 μl hamster liver nuclei in the absence (lanes 1, 3, 5, 7, 9) or presence (lanes 2, 4, 6, 8, 10) of 1 mM dATP at 37° C. for 2 hr in a final reaction volume of 60 μl. The DNA were isolated as described in the Examples, analyzed on 2% agarose gel electrophoresis, and the DNA was visualized by ethidium bromide staining. In FIG. 7D, DNA fragmentation assays were carried out as in FIG. 7C using HeLa S-100 immunodepleted of cytochrome c alone (a,b) or supplemented with Apaf-2 purified through Mono S column step (c,d) in the absence (a,c) or presence of 1 mM dATP (b,d). After 2 hr incubation at 37° C., an aliquot of each reaction (30 μl) was stained with 4′,6′-diamidino-2-phenylindole (DAPI), and observed under a fluorescence microscope with a UV-2A combination filter.
To rule out the possibility that the Apaf-2 activity is due to a minor contaminating protein that co-purified with cytochrome c, an immunodepletion experiment was carried out using a monoclonal antibody against rat cytochrome c. This monoclonal antibody cross-reacts with purified Apaf-2. […]

For the substance “Apaf-2: 15 kDa factor bound to phosphocellulose column, purified from HeLa S-100, identified as human cytochrome c”, the “restoration of DNA fragmentation” value (1 μg added to immunodepleted HeLa S-100, 1 mM dATP) was “restored”. Moreover, the “nuclear morphological change (DAPI)” value (immunodepleted S-100 supplemented with Apaf-2, 1 mM dATP) was “accompanied by the morphological change in the co-incubated nuclei that is characteristic of apoptosis”.
